Source: US5891657A (priority 1994, dated 1999)
Converted amounts (≈) assume the structure as drawn.

Legend:
[1] = system: anti-analyte antibody; details: magnetic-particle enzyme immunoassay
Procedure: (§1) The sample to be tested is added, along with the enzyme conjugate, to a disposable test tube followed by the addition of paramagnetic particles with analyte-specific antibodies attached. At the end of an incubation period, a magnetic field is applied to hold the paramagnetic particles (with analyte and enzyme-conjugate bound to the antibodies on the particles, in proportion to their original concentration in the tube) in the tube and allow the unbound reagents to be decanted. After decanting, the particles are washed with Washing Solution.
(§2) The presence of analyte is detected by adding the enzyme substrate (hydrogen peroxide) and the chromogen (3,3',5,5'-tetramethylbenzidine). The enzyme-conjugate bound to the anti-analyte antibody catalyzes the conversion of the substrate/chromogen mixture to a colored product. After an incubation period, the reaction is stopped and stabilized by the addition of acid. Since the conjugate was in competition with the unlabeled analyte for the antibody sites, the color developed is inversely proportional to the concentration of analyte in the sample.
(§3) 200 μl of either standard, control or sample is added to each tube.
(§4) 250 μl of conjugate is added to each tube.
(§5) The antibody-coupled paramagnetic particles are mixed thoroughly and 500 ul of them are added to each tube (The stock solution with a concentration of 8-10 mg iron/ml was diluted 1:1000 in 150 mM Tris, 150 mM NaCl, 1 mM EDTA, 0.1% BSA with 15 ppm Proclin, pH 7.4 and 500 ul was added to each tube).
(§6) Tubes are vortexed for 1 to 2 seconds minimizing foaming.
(§7) Tubes are incubated for 15 min at room temperature (15°-30° C.).
(§8) Tubes in the magnetic rack are placed over a magnetic base for two minutes.
(§9) The tubes are decanted and gently blotted briefly in a consistent manner.
(§10) One ml of Washing Solution is added to each tube and the tubes are allowed to remain in the separation rack for two minutes.
(§11) Decant and gently blot all tubes briefly in a consistent manner.
(§12) Repeat steps 8 and 9 an additional time.
(§13) Remove the rack from the separator and add 500 μl of Color Solution to eac tube.
(§14) Vortex for 1 to 2 seconds minimizing foaming.
(§15) Incubate for 20 minutes at room temperature.
(§16) Add 500 μl of Stopping Solution to each tube.
(§17) Read results at 450 nm within 15 minutes after adding the Stopping Solution.
(§18) Calculating the mean absorbance value for each standard.
(§19) Calculating the % B/B0 for each standard by dividing the mean absorbance value for the standard by the mean absorbance value for the Diluent/Zero Standard In other words if the mean absorbance value for the standard is 0.5 times the mean absorbance value for the Diluent/Zero Standard then the % B/B0 is 50% and the concentration of standard used is the 50% B/B0 concentration.)
(§20) Constructing a standard curve by plotting the % B/B0 for each standard on vertical logit (Y) axis versus the corresponding analyte concentration on a horizontal algorithmic (X) axis.
(§21) 4. % B/B0 for controls and sample will then yield levels in ppm of analyte by interpolation using the standard curve.

[2] = Storage stability, 2.5 ml in 3.5 ml vials, antibody preparation reactive with anthracene and phenanthrene; type: physicochemical
Procedure: Additional experiments were done using volumes of 2.5 ml in 3.5 ml vials and an antibody preparation reactive with anthracene and phenanthrene, the antibodies not made with the immunogen described herein and although much less suited for purposes of the present inventions than that made from the described immunogen, were adequate for obtaining the stability curves. (The results were considered to essentially reflect what would have occurred if the storage was done with 2 ml of solution in a 3 ml vial.) Anthracene was tested at concentrations of 1 ppb (upper set of curves in FIG. 6), 10 ppb (middle set of curves in FIG. 6) and 100 ppb (lower set of curves in FIG. 6) in TBS pH 7.0 at the specified temperatures in FIG. 6. Phenanthrene was tested at concentrations of 1 ppb (upper set of curves in FIG. 7), 10 ppb (middle set of curves in FIG. 7) and 100 ppb (lower set of curves in FIG. 7) in TBS at pH 7.0 at the specified temperatures in FIG. 7.

[3] = because of boiling point 279° C. (Merck Index); cited from earlier work
[4] = Loss of immunoreactivity on storage in open test tube (volatilization); type: physicochemical; details: conditions of Example 1; 2,4-D 10 ppm, naphthalene 0.75 ppm; FIG. 5
Procedure: They were stored in 10 ml of distilled water at room temperature (15°-30° C.) in an open test tube (18 mm in diameter, and 150 mm in length).
The "Recovery" was taken to be inversely proportional to the light at 450 nm generated in the assay. […] The loss of reactivity as a function of time was concluded that the loss was due to volatilization and not chemical decomposition of the compounds. Also the loss was so great that it was concluded that even if the solutions had been incubated as 2 ml aliquots in 3 ml closed vials, much more than 30 percent would have volatilized over a 14-day period.
Additionally, preparations of anthracene (20 ppm), naphthalene (0.75 ppm), and 2,4-D (10 ppm), were tested for their immunoreactivity using the conditions of using the conditions described in Example 1.

[5] = system: anti-analyte antibody; test: Cross-reactivity / immunoreactivity in competitive magnetic-particle enzyme immunoassay
Procedure: as §1, §2, §3, §4, §5, §6, §7, §8, §9, §10, §11, §12, §13, §14, §15, §16, §17, §18, §19, §20, §21

[6] = Stability (lack of volatilization) of 2 ml solution in stoppered 3 ml vial; type: physicochemical; details: 0.035, 0.10, 0.750 ppm; 2 ml in stoppered 3 ml vial; various temperatures; 60 days; FIGS. 2-4
Procedure: Storage was effected by incubating the 2 ml of solution in a stoppered vial with a 3 ml capacity. The one ml of open "head space" in the vial […] to allow volatilization of the N-(3-methylbenzyl)-diglycolic acid, monoamide.
At each concentration of the N-(3-methylbenzyl)-diglycolic acid, monoamide, the immunoassay was performed at various temperatures denoted in the Figure summarizing the results.

Row | Structure (SMILES) | IC50 [1] [µg/mL] | also measured
1 | Cc1ccccc1C [o-xylene] | 4.7 (≈ 44.3 µM) | 
2 | Cc1ccc(C)cc1 [p-xylene] | 3.1 (≈ 29.2 µM) | 
3 | CCCCCC [n-hexane] | > 100 | 
4 | c1ccc2cc3ccccc3cc2c1 [anthracene] | 28 (≈ 157 µM) | stability on storage ([2]; 1, 10, 100 ppb in TBS pH 7.0, 2.5 ml in 3.5 ml vials, FIGS. 6, 7): very stable (meets the 14-day test)
5 | Clc1c(Cl)c(Cl)c(Cl)c(Cl)c1Cl [hexachlorobenzene] | > 100 | 
6 | CCCCCCCCC [n-nonane] | > 100 | 
7 | Cc1ccc(C)c(C)c1 [1,2,4-trimethylbenzene] | 1.15 (≈ 9.57 µM) | 
8 | CCCCCCCC [n-octane] | > 100 | 
9 | CCCCCCC [n-heptane] | 72 (≈ 719 µM) | 
10 | CCCc1ccccc1 [n-propylbenzene] | 4.7 (≈ 39.1 µM) | 
11 | c1ccc2c(c1)ccc1ccccc12 [phenanthrene] | 1.6 (≈ 8.98 µM) | stability on storage ([2]; pH 7): very stable (meets the 14-day test)
12 | Cc1ccccc1 [toluene] | 7.4 (≈ 80.3 µM) | 
13 | Cc1cccc(C)c1 [m-xylene] | 1.8 (≈ 17 µM) | 
14 | CCc1ccccc1 [ethylbenzene] | 7.8 (≈ 73.5 µM) | 
15 | ClC=C(Cl)Cl [trichloroethylene] | > 100 | 
16 | c1ccccc1 [benzene] | 51 (≈ 653 µM) | 
17 | C=Cc1ccccc1 [styrene] | 2.6 (≈ 25 µM) | 
18 | c1cc2c3c(cccc3c1)CC2 [acenaphthene] | 6.2 (≈ 40.2 µM) | stability as regards volatilization [3]: stable as regards volatilization
19 | O=C(O)COc1ccc(Cl)cc1Cl [2,4-D] |  | stability on storage [4]: more stable than m-xylene but less stable than anthracene
20 | Cc1cc(C)cc(C)c1 [1,3,5-tri-methylbenzene] | 3.5 (≈ 29.1 µM) | 
21 | CCCCCCCCCC [n-decane] | > 100 | 
22 | c1ccc2ccccc2c1 [naphthalene] | 0.59 (≈ 4.6 µM) | stability on storage [4]: not sufficiently stable
23 | C1CCCCC1 [cyclohexane] | > 100 | 
24 | Cc1cccc(CNC(=O)COCC(=O)O)c1 [N-(3-methylbenzyl)-diglycolic acid, monoamide] |  | equivalent Total BTEX concentration ([5]; standard at 0.035 ppm): approximately 0.09 ppm; equivalent Total BTEX concentration ([5]; standard at 0.035 ppm, monoamide): 0.09 ppm; equivalent Total BTEX concentration ([5]; standard at 0.10 ppm): approximately 0.35 ppm; equivalent Total BTEX concentration ([5]; standard at 0.10 ppm, monoamide): 0.35 ppm; equivalent Total BTEX concentration ([5]; standard at 0.75 ppm): approximately 3.00 ppm; equivalent Total BTEX concentration ([5]; standard at 0.75 ppm, monoamide): 3.00 ppm; stability (lack of volatilization) as a function of storage time [6]: essentially stable
25 | ClCCl [methylene chloride] | > 100 | 
